Results: ChEMBL document CHEMBL3351786, “Drug discovery targeting cell division proteins, microtubules and FtsZ” (Bioorg Med Chem, 2014)

Experiments:
Type in all cases: functional
[1] = test system: A2780; assay: Resistance factor, ratio of IC50 for paclitaxel-resistant human 1A9PTX10 cells to ratio of IC50 for human A2780 cells
[2] = test system: A2780; assay: Resistance factor, ratio of IC50 for paclitaxel-resistant human 1A9PTX22 cells to ratio of IC50 for human A2780 cells
[3] = test system: HeLa; assay: Mitotic arrest in human HeLa cells assessed as apoptosis at 5 nM after 24 hrs by TUNEL assay

| SMILES | Ratio IC50 [1] | Ratio IC50 [2] | Activity [3] |
| --- | --- | --- | --- |
| CCC(=O)O[C@H]1C(=O)[C@@]2(C)[C@H]([C@H](OC(=O)c3cccc(OC)c3)[C@]3(O)C[C@H](OC(=O)[C@H](O)[C@H](C=C(C)C)NC(=O)OC(C)(C)C)C(C)=C1C3(C)C)[C@]1(OC(C)=O)CO[C@@H]1C[C@@H]2O | 4.8 | 5.1 |  |
| CCC(=O)O[C@H]1C(=O)[C@@]2(C)[C@H]([C@H](OC(=O)c3ccccc3)[C@]3(O)C[C@H](OC(=O)[C@H](O)[C@H](C=C(C)C)NC(=O)OC(C)(C)C)C(C)=C1C3(C)C)[C@]1(OC(C)=O)CO[C@@H]1C[C@@H]2O |  |  | 70% |
